Entries after “also recorded” stand apart in the source; their conditions may differ.
B1: RANKL: trimerized recombinant RANKL protein (rRANKL), receptor activator of NF-KB ligand (protein, UniProt O14788 69-317, looked up)
extracellular domain: YFRAQMDPNRISEDGTHCIYRILRLHENADFQDTTLESQDTKLIPDSCRRIKQAFQGAVQKELQHIVGSQHIRAEKAMVDGSWLDLAKRSKLEAQPFAHLTINATDIPSGSHKVSLSSWYHDRGWAKISNMTFSNGKLIVNQDGFYYLYANICFRHHETSGDLATEYLQLMVYVTKTSIKIPSSHTLMKGGSTKYWSGNSEFHFYSINVGGFFKLRSGEEISIEVSNPSLLDPDQDATYFGAFKVRDID
modifications: extracellular domain trimerized

Tests used:
[1] = system: ARCaPE, ARCaPM and ARCaPE-RANKL cells; experiment: In vitro migration and invasion assays (transwell), ARCaP model; assay type: cell-based, human
Experimental: Migration and invasion of cancer cells were examined in 24-well plates using either uncoated or collagen I- and growth factor reduced Matrigel (BD Biosciences, Bedford, Mass.)-coated transwells (8 μm pore size), respectively, as previously described. Cells were serum-starved in RPMI 1640 or T-medium (Invitrogen, Carlsbad, Calif.) overnight and dissociated in 10 mM EDTA/HEPES. The lifted cells were washed and counted, and 5×10^4 cells were seeded in 100 μl of serum-free RPMI 1640 or T-medium in the upper chamber of the transwells in the presence or absence of 1 μg/ml OPG and 400 μl of RPMI 1640 or T-medium supplemented with 5% FBS was placed in the lower chamber of the transwells. After 24 h (migration) and 48 h (invasion) of culturing at 37° C., the migrated and invaded cells were fixed with 10% formaldehyde, stained with 0.5% crystal violet, and the cells at the upper side of the membrane of the chamber were removed and quantified.

LNCaP cells = experiment: EMT marker / RANKL expression and signaling by RT-PCR and Western blot, LNCaP model; assay type: cell-based, human
Experimental: Total RNA from cells was isolated using RNeasy Mini Kit (Qiagen, Valencia, Calif.) according to manufacturer's instructions. Complementary DNA (cDNA) was generated from 3 μg of total RNA using SuperScript® III First-Strand Synthesis System (Invitrogen, Carlsbad Calif.), and 1 μl of cDNA was subjected to PCR analyses using the following primers: RANKL F: 5′-TGGATCACAGCACATCAGAGCAG-3′ (SEQ ID NO:3); RANKL R: 5′-TGGGGCTCAATCTATATCTCGAAC-3′ (SEQ ID NO:4); RANK F: 5′-GGGAAAGCACTCACAGCTAATTTG-3′ (SEQ ID NO:5); RANK R: 5′-GCACTGGCTTAAACTGTCATTCTCC-3′ (SEQ ID NO:6); OPG F: 5′-GCT AAC CTC ACC TTC GAG-3′ (SEQ ID NO:7); OPG R: 5′-TGA TTG GAC CTG GTT ACC-3′ (SEQ ID NO:8); E-cadherin F: 5′-GCCAAGCAGCAGTACATTCTACACG-3′ (SEQ ID NO:9); E-cadherin R: 5′-GCTGTTCTTCACGTGCTCAAAATCC-3′ (SEQ ID NO:10); N-cadherin F: 5′-GATGTTGAGGTACAGAATCGT-3′ (SEQ ID NO:11); N-cadherin R: 5′-GGT CGG TCT GGA TGG CGA-3′ (SEQ ID NO:12); Snail F: 5′-CAGACCCACTCAGATGTCAA-3′ (SEQ ID NO:13); Snail R: 5′-CATAGTTAGTCACACCTCGT-3′ (SEQ ID NO:14); Vimentin F: 5′-GGA CTC GGT GGA CTT CTC-3′ (SEQ ID NO:15); Vimentin R: 5′-CGC ATC TCC TCC TCG TAG-3′ (SEQ ID NO:16). The PCR reaction cycles involved an initial denaturation at 94° C. for 10 min, followed by 36 cycles of 94° C., 1 min; 55° C., 30 sec for RANKL and RANK and 48° C., 1 min for OPG; 72° C., 1 min and a final extension at 72° C. for 10 min. For E-cadherin and N-cadherin gene amplification, the PCR reactions ran for a total of 32 cycles and the annealing temperature was 55° C. and 47° C., respectively for 30 sec. For Snail, Vimentin, and GAPDH amplification, the PCR reactions ran for a total of 28 cycles with annealing temperatures at 48° C. for 30 sec. The amplified PCR products were detected and analyzed on 1% agarose gel.
ARCaPE and LNCaP cells were cultured in 6-well plate and at 70% confluency, the cells were serum-starved overnight and then treated with 200 ng/ml of trimerized RANKL in serum-free and phenol-red free RPMI-1640 medium for three days before harvesting the cells. ARCaPE-RANKL and LNCaP-RANKL cells were cultured in 6-well plate and treated with 20 μM of LY294002, a PI3K inhibitor, 20 μM of SB203580, an inhibitor of MAP kinase reactivating kinase, or 2 μM of PS341 (bortezomib), a proteasome inhibitor, at 90% confluency for four hours. Cells were lysed in RIPA buffer containing 1× protease inhibitor cocktail (Thermo Fisher Scientific, Waltham, Mass.) and centrifuged, and the supernatants were collected and quantified using Bradford Protein Assay (Thermo Fisher Scientific, Waltham, Mass.). Cell lysates (20-30 μg) were resolved on a 4-12% Bis-Tris gradient SDS-PAGE (Invitrogen, Carlsbad, Calif.) under reducing conditions, followed by transblotting onto nitrocellulose membrane (BioRad, Hercules, Calif.). The membranes were blocked in 5% non-fat milk in PBST for one hour at room temperature (RT) and incubated with diluted primary antibodies in blocking buffer at 4° C. overnight. The primary antibodies used were RANKL, E-cadherin, vimentin, and OPG (Santa Cruz Biotechnology, Inc., Santa Cruz, Calif.), RANK (Amgen, Thousand Oaks, Calif.), N-cadherin (BD Transduction Laboratories, San Jose, Calif.), phosphor-Akt (Ser 473), Akt, phosphor-p38 (Thr180/Tyr182), p38, phosphor-ERK1/2 (Thr202/Tyr204), ERK, phosphor-SAPK/JNK (Thr183/Tyr185), JNK, phosphor-NF-κB p65 (Ser536), and NF-κB p65 (Cell Signaling Technology, Danvers, Mass.). The membranes were washed with PBST for three times before incubating with peroxidase-conjugated anti-mouse or anti-rabbit secondary antibodies at RT for one hour. After three times washing, the membranes were visualized using ECL Plus reagent (GE Healthcare, Piscataway, N.J.).

[2] = system: RANKL promoter in LNCaP and LNCaP-RANKL cells; experiment: RANKL promoter reporter assay, LNCaP model; assay type: cell-based, human
[3] = system: cMyc site within the RANKL promoter in LNCaP cells; experiment: ChIP analysis (quantitative real-time PCR) of cMyc binding to the RANKL promoter; assay type: cell-based, human
cMet in LNCaP cells = experiment: cMet expression and phosphorylation (Western blot), LNCaP; assay type: cell-based, human
[4] = system: cMet transcriptional activity; experiment: cMet promoter reporter assay; assay type: cell-based

| Molecule | increased migration and invasion of ARCaPE-RANKL cells ([1]; OPG treatment) | migration and invasion of ARCaPM cells ([1]; OPG treatment, 1 μg/ml) | RANKL-induced increase of migration and invasion of ARCaPE cells ([1]; presence of OPG) | RANKL-induced RANKL expression in LNCaP cells (LNCaP cells; addition of OPG) | RANKL-induced biochemical EMT changes in LNCaP cells (LNCaP cells; addition of OPG) | increased RANKL promoter activity in LNCaP-RANKL cells ([2]; OPG treatment) | induction of cMyc binding to the cMyc site ([3]; exposing to OPG) | RANKL- or HGF-induced cMet expression and phosphorylation in LNCaP cells (cMet in LNCaP cells; OPG (vs RANKL) or anti-HGF antibody (vs HGF) treatment) | RANKL up-regulated cMet transcriptional activity ([4]; OPG treatment) | migration and invasion of ARCaPE cells ([1]; recombinant RANKL treatment) | RANKL expression at mRNA and protein levels in LNCaP cells (LNCaP cells; RANKL treatment) | nuclear levels of cMyc and Max in LNCaP cells (LNCaP cells; RANKL-treated versus LNCaP cells) | induction of EMT (EMT-specific markers) in LNCaP cells (LNCaP cells; exogenously added RANKL, 200 ng/ml) | phosphorylation of PI3K/Akt, P38 and NFκB proteins in parental LN cells (LNCaP cells; treated with RANKL protein) | RANKL promoter activity in LNCaP cells ([2]; RANKL treatment) | increase of cMyc binding to the cMyc site ([3]; RANKL-treated LNCaP cells, quantitative real-time PCR) [fold] | cMet expression and phosphorylated level of cMet in LNCaP cells (cMet in LNCaP cells; exogeneous RANKL or HGF treatment) | cMet transcriptional activity ([4]; RANKL treatment) |
| --- | --- | --- | --- | --- | --- | --- | --- | --- | --- | --- | --- | --- | --- | --- | --- | --- | --- | --- |
| osteoprotegerin [OPG] | suppressed | antagonized; also recorded: decreased | abrogated | attenuated | abolished | attenuated | dampened | abrogated | attenuated |  |  |  |  |  |  |  |  |  |
| B1 |  |  |  |  |  |  |  |  |  | increased | induced; also recorded: up-regulated | higher | confirmed; also recorded: decreased epithelial marker E-cadherin and increased mesenchymal marker vimentin, N-cadherin, and Snail | elevated | induction | ~11 | significantly increased | up-regulated |

— patent US20130263297A1, “METHODS OF TREATING CANCER” (Cedars-Sinai Medical Center, priority 2010, published 2013)
